These results are taken from ChEMBL document CHEMBL1201862, “PubChem BioAssay data set” (2004).

Assay [1] concerns the target T1, Microphthalmia-associated transcription factor (Homo sapiens, UniProt O75030).
T1 sequence (O75030 whole entry): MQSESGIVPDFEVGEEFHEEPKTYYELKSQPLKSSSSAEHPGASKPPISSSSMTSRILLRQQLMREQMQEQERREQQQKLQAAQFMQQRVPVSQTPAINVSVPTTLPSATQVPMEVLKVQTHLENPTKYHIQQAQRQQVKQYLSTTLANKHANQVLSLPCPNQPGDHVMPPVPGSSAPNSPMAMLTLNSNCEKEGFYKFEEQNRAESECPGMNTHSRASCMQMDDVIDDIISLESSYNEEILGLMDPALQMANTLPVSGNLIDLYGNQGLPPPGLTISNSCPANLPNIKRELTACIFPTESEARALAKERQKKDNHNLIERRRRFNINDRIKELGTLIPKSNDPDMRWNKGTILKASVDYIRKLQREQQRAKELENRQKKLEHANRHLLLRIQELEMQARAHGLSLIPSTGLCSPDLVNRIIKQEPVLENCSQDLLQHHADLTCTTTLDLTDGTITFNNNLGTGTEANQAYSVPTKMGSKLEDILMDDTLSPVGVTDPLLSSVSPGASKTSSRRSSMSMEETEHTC
The experiment in a line: TRPM1 promoter luciferase signal decrease, dose response, MITF inhibitor project, cell-based, SK-MEL-5, cherry-picked, set 3 (AID 493073).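 Also: SK-MEL-5 melanoma cells with luciferase driven by the MITF target TRPM1 promoter.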 It counts as functional.

The next assay addresses Beta Lactamase (Pseudomonas aeruginosa, UniProt Q932Y6). The experiment in a line: beta-lactamase reporter inhibitor potency, dose response, artefact control for TLR9-MyD88 binding inhibitor project, BLA reporter cells, FRET fluorescence (AID 588341).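 Also: cell based assay in CHO-K1 cells stably expressing beta-lactamase.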 It counts as cell-based.
The next assay has as its system CHO. In words: cytotoxicity in TLR9-MyD88 CHO cells, dose response, cytotoxicity control for TLR9-MyD88 binding inhibitor project, cell-based, luminescence (AID 588339).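 Also: CHO cells stably coexpressing TLR9 and MyD88 fusions from primary screen; compound exposure lasted 48 hours before viability readout.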 It counts as functional, hamster. As to conditions: Cricetulus griseus.
For assay [2], the target named is Heat shock protein HSP 90-alpha (Homo sapiens, UniProt P07900). Format: functional, organism-based.
Assay [3] has as its target Glycogen synthase kinase-3 alpha (Homo sapiens, UniProt P49840). The experiment in a line: Inhibition of Human GSK-3 alpha Activity Measured in Biochemical System Using Microfluidics - 2063-06_Inhibitor_Dose_DryPowder_Activity_Set2. [Related pubchem assays (depositor defined):AID2709].
Assay [4] deals with Glycogen synthase kinase-3 beta (Homo sapiens, UniProt P49841). In words: Inhibition of Human GSK-3 beta Activity Measured in Biochemical System Using Microfluidics - 2063-05_Inhibitor_Dose_DryPowder_Activity_Set2. [Related pubchem assays (depositor defined):AID2709].
In assay [5] the target is Apoptotic protease-activating factor 1 (Homo sapiens, UniProt O14727). It counts as functional.
Apoptotic protease-activating factor 1, sequence (O14727 whole entry): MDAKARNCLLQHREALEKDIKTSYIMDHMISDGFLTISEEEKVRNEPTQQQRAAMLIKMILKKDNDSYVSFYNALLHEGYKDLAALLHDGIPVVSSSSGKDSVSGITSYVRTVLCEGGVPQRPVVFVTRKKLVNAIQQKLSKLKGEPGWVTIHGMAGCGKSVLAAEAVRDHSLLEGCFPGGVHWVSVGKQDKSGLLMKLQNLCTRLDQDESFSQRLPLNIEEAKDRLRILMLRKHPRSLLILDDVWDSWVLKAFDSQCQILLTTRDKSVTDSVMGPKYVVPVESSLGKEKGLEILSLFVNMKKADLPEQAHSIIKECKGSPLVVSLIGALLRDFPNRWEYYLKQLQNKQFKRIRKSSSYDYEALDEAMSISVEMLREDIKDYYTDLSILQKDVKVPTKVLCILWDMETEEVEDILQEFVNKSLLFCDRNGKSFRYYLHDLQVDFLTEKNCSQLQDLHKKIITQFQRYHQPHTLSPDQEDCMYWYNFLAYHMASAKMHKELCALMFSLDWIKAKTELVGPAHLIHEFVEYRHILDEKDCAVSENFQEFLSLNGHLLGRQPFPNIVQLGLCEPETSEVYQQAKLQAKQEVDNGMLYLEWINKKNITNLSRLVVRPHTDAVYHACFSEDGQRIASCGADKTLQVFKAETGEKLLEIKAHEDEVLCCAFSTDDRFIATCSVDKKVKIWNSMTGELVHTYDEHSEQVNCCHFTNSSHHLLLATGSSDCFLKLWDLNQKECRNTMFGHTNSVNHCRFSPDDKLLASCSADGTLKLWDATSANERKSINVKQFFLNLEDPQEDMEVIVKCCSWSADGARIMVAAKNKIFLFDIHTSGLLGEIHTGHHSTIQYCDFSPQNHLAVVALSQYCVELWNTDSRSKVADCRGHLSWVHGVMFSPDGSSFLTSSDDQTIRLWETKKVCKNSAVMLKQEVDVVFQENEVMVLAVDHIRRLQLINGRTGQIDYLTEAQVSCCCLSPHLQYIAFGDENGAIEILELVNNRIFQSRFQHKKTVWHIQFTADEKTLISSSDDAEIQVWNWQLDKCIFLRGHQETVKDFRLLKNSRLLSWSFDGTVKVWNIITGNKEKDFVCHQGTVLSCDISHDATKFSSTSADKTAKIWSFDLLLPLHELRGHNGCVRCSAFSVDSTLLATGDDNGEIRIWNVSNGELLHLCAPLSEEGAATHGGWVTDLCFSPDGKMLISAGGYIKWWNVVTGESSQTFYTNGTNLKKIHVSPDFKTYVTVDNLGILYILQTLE
In assay [6] the target is T2, Sphingosine 1-phosphate receptor 4 (Homo sapiens, UniProt O95977).
T2 sequence (O95977 whole entry): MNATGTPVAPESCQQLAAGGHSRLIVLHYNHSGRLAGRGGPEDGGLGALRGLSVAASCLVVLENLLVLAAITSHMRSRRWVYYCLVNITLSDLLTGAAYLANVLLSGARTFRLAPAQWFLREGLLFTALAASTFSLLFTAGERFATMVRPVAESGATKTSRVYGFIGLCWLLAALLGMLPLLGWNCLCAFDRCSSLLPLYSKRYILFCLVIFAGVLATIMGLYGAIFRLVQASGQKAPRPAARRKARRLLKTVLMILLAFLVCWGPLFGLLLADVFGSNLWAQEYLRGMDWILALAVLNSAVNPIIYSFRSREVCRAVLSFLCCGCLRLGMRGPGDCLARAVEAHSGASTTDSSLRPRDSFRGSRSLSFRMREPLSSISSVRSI
The experiment in a line: Fluorescence dose response cell-based high throughput screening assay for antagonists of the Sphingosine 1-Phosphate Receptor 4 (S1P4). [Related pubchem assays: 1524 (Confirmation in triplicates.), 1510 (Primary screen.)]. Format: functional.

In assay [7] the target is T3, Delta-type opioid receptor (Homo sapiens, UniProt P41143). The experiment in a line: HTS Image-Based Screen for Agonists of the DOR Receptor. [Related pubchem assays (depositor defined):AID1777, AID1786, AID2133]. Format: functional.
T3 sequence (P41143 whole entry): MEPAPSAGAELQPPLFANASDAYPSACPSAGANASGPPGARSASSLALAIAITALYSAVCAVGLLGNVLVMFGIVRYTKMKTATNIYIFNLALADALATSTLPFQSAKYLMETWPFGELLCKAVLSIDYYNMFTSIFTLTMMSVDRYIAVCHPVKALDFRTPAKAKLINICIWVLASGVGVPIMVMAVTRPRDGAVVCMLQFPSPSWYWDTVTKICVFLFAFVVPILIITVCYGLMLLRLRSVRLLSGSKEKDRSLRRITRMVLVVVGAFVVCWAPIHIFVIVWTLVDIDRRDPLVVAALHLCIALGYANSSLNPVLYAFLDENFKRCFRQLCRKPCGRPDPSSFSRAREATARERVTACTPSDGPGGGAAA
The target of assay [8] is T4, Type-1 angiotensin II receptor (Homo sapiens, UniProt P30556).
T4 sequence (P30556 whole entry): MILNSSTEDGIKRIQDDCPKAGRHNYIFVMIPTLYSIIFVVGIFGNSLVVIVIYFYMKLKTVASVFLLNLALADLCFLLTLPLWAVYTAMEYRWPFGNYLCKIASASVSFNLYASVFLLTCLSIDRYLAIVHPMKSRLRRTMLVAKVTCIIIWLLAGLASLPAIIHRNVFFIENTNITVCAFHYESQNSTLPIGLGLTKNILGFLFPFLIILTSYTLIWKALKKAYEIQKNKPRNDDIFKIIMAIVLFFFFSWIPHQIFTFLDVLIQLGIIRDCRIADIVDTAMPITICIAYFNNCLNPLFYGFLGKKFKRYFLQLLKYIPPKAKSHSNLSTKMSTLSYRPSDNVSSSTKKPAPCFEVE
In words: AT1 receptor antagonists, dose response, selectivity assay for APJ receptor antagonist project, cell-based, uHTS hits (AID 463214).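 Also: antagonist potency against angiotensin II stimulated AT1 response.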 Format: functional.

In assay [9] the test system is HEK293. In words: cytotoxicity in HEK293T NF-kB-Luc cells, SAR follow-up, cytotoxicity control for NF-kB activator project, cell-based, resazurin fluorescence (AID 493251). Format: functional. The following applies: Homo sapiens. (In general: The colour change of resazurin is a common sign of viable cells or microbes.)
For assay [10], the target named is T5, Beta-galactosidase (Escherichia coli, UniProt Q8VNN2). The experiment in a line: PubChem AID 485352. Format: functional.
T5 sequence (Q8VNN2 whole entry): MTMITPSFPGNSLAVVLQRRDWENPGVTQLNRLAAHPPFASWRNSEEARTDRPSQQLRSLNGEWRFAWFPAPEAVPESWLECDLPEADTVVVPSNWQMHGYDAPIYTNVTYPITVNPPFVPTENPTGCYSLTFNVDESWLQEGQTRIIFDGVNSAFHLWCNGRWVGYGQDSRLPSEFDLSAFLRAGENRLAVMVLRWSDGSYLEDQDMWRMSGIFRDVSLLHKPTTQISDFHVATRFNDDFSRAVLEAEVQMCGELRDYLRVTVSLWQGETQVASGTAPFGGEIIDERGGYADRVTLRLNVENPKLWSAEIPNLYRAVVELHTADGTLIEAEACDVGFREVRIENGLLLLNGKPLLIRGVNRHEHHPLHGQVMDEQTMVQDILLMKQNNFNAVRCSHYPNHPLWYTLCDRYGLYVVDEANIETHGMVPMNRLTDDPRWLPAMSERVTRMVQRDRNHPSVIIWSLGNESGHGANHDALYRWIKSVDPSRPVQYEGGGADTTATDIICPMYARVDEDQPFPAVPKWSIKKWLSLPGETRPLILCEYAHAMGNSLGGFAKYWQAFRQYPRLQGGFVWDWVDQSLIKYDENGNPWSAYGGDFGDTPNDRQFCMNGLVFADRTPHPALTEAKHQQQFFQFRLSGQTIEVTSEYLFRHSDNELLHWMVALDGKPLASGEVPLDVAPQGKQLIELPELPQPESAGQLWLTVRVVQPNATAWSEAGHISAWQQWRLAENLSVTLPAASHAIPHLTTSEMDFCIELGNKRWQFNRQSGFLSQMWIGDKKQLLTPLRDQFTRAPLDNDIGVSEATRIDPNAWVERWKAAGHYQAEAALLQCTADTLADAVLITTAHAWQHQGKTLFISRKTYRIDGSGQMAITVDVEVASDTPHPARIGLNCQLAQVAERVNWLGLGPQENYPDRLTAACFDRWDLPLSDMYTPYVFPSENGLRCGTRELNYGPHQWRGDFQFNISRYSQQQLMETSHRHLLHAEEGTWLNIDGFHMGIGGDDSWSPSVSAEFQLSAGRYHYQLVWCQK
A short description of assay [11]: growth suppression of PTEN-null colon cells, dose response, cell-based, HCT116 PTEN knockout (AID 1047).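 Also: HCT116 colon tumor cells with PTEN knocked out; cells exposed to compound for 60 hours before readout; potency for loss of cell viability measured by luminescence.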 It counts as functional.
Assay [12] can be described thus: Luminescence Cell-Based Dose Response HTS to Identify Inhibitors of 5'UTR Stem-Loop Driven Prion Protein mRNA Translation in H4 Neuroglioblastoma Cells. [Related pubchem assays: 1827 (Project Summary), 1813 (Primary HTS)]. Format: functional.
The subject of a further assay is Vero. In words: host cell cytotoxicity of antiviral hits, dose response, cytotoxicity control for West Nile virus antiviral project, secondary assay (AID 1650). It counts as functional. The following applies: Chlorocebus sabaeus.
For assay [13], the system named is A-375. In words: MITF: Counter assay: A375 proliferation Measured in Cell-Based System Using Plate Reader - 2084-03_Inhibitor_Dose_DryPowder_Activity. [Related pubchem assays (depositor defined):AID488944]. Format: functional. The following applies: Homo sapiens.
Assay [14] has as its system A-375. The experiment in a line: A375 melanoma cell viability reduction, dose response, counter-screen for MITF modulator project, cherry-pick samples, set 2 (AID 540335). Format: functional, cell-based. As to conditions: Homo sapiens. A general note: The purpose of a counterscreen is to sort out artefacts and off-target activity.
Assay [15] in a line: inhibitors of SNCA 5'UTR-driven reporter translation, confirmation, H4 neuroglioma cells, luminescence (AID 1988). It counts as functional, cell-based.
Assay [16] deals with HEK293. The experiment in a line: SAR Analysis of small molecule inhibitors of both B-cell and T-cell specific antigen receptor-induced NF-kB activation in a HEK-293T cell line using a luminescence assay. [Related pubchem assays (depositor defined):AID435003, AID435022, AID465, AID489019, AID489029]. As to conditions: Homo sapiens. It counts as functional, cell-based.
For assay [17], the target named is T2, Sphingosine 1-phosphate receptor 4. The experiment in a line: Late stage fluorescence dose response cell-based screening assay for antagonists of the Sphingosine 1-Phosphate Receptor 4 (S1P4). [Related pubchem assays: 1524 (Confirmation screen (S1P4 antagonists).), 1510 (Primary screen (S1P4 antagonists).), 1853 (Summary AID (S1P4 antagonists).), 1692 (Dose response screen (S1P4 antagonists).)]. It counts as functional.

Assay [18] can be described thus: Luminescence-based dose response cell-based high throughput screening assay for cytotoxic compounds using the IEC-6 intestinal epithelial cell line. [Related pubchem assays: 1858 (Summary AID.), 1825 (Counterscreen.), 1907 (Confirmation screen.)]. It counts as functional.
Assay [19] concerns the target T3, Delta-type opioid receptor. In words: HTS Image-Based Screen for Antagonists of the DOR Receptor. [Related pubchem assays (depositor defined):AID1777, AID1785, AID1786, AID2133]. Format: functional.
For assay [20], the target named is Kappa-type opioid receptor (Homo sapiens, UniProt P41145). It counts as functional.
Kappa-type opioid receptor, sequence (P41145 whole entry): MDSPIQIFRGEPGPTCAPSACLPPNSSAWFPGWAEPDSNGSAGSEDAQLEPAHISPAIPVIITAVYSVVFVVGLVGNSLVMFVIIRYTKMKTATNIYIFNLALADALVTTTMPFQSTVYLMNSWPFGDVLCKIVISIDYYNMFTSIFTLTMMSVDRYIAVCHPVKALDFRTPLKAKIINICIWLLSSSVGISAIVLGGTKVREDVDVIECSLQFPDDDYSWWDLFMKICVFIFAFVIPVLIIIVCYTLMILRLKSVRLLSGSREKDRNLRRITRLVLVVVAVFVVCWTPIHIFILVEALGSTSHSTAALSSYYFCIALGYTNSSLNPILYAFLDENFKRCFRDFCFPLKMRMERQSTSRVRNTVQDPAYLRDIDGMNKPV
Assay [21] addresses T5, Beta-galactosidase. It counts as functional.
For assay [22], the target named is Sphingosine 1-phosphate receptor 1 (Homo sapiens, UniProt P21453). It counts as functional.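 Also: Tango beta-arrestin reporter U2OS cells stimulated with S1P near its EC80; inhibitor potency meaning antagonism of receptor activation by the natural agonist.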
Sphingosine 1-phosphate receptor 1, sequence (P21453 whole entry): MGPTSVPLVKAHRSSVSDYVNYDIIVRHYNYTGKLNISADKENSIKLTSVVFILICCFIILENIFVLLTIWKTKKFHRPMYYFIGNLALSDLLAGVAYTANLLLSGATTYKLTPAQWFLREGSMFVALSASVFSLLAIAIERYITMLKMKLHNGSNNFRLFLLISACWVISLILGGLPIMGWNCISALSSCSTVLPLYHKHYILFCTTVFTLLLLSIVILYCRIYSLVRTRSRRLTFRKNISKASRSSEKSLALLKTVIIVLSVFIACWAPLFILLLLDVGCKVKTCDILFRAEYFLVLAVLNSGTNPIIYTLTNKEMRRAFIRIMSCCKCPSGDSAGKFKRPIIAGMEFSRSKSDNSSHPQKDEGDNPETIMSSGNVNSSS
The nature of assay [23]: inhibitors of firefly luciferase expression or activity, dose response, H4 neuroglioma cells, luminescence (AID 1990). Format: functional, cell-based.
The subject of a further assay is Jurkat. In words: SAR Analysis of small molecule inhibitors of both B-cell and T-cell specific antigen receptor-induced NF-kB activation in a Jurkat cell line using a luminescence assay. [Related pubchem assays (depositor defined):AID435003, AID435022, AID465, AID489029]. It counts as functional, cell-based. The following applies: Homo sapiens.
Assay [24] is described as follows: growth suppression of beta-catenin-knockout colon cells, dose response, cell-based, HCT116, human colon tumor (AID 1045).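 Also: HCT116 colon tumor cells with beta catenin knocked out; cells exposed to compound for 60 hours.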 Format: functional.
Another assay addresses Mu-type opioid receptor (Homo sapiens, UniProt P35372). In words: HTS Image-Based Screen for Agonists of the MOR Receptor. [Related pubchem assays (depositor defined):AID1777, AID1785, AID1786, AID2133]. It counts as functional.
Assay [25] deals with Latent membrane protein 1 (Human herpesvirus 4 (strain B95-8), UniProt P03230). In words: TES1-eGFP NF-kB reporter inhibition versus Tet-On dsRED, dose response, selectivity assay for LMP1 NF-kB inhibitor project, imaging, HEK293T, dual-color eGFP/dsRED, cherry-picks (AID 588398). Format: functional, cell-based.
Latent membrane protein 1, sequence (P03230 whole entry): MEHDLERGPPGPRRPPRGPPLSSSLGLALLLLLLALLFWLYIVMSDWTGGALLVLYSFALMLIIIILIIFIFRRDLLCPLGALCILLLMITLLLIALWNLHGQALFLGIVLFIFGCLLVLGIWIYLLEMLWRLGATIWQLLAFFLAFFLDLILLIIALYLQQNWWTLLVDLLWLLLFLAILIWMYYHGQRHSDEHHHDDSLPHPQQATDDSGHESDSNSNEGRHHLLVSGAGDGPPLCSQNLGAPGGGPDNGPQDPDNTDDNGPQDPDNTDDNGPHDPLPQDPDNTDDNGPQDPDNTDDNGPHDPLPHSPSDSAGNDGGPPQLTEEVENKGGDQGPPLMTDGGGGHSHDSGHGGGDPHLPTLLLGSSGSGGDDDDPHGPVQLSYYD
For assay [26], the system named is INS1. In words: inhibitors of cytokine-induced nitrite release, dose response, cell-based, Griess absorbance, INS-1E, dry powder, set 2 (AID 488868). Format: functional. The following applies: Rattus norvegicus. A general note: The Griess reaction detects nitrite, a stable product of nitric oxide.
Assay [27] relates to INS1. The experiment in a line: protection of INS-1E cells from cytokine death, dose response, ATP luminescence, dry powder (AID 488844). Format: functional, cell-based. As to conditions: Rattus norvegicus.
Assay [28] deals with INS1. In words: protection from cytokine-driven beta-cell apoptosis, dose response, JC-1 fluorescence, INS-1E, dry powder, set 2 (AID 488867). It counts as functional, cell-based. As to conditions: Rattus norvegicus.

The structures appear in SMILES notation. Calls of active or inactive are those of the source.

Mu-type opioid receptor, sequence (P35372 whole entry): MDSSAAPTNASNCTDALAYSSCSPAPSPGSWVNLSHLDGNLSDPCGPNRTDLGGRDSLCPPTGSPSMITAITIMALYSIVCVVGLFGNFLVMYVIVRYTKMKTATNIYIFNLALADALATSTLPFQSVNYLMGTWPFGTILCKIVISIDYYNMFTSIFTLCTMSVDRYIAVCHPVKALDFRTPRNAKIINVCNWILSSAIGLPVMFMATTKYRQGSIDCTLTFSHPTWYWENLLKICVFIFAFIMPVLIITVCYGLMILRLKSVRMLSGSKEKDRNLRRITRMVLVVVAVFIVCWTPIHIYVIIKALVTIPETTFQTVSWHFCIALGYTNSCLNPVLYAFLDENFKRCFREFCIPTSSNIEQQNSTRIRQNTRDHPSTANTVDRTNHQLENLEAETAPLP
Beta Lactamase, sequence (Q932Y6 whole entry, the tested form may be a part): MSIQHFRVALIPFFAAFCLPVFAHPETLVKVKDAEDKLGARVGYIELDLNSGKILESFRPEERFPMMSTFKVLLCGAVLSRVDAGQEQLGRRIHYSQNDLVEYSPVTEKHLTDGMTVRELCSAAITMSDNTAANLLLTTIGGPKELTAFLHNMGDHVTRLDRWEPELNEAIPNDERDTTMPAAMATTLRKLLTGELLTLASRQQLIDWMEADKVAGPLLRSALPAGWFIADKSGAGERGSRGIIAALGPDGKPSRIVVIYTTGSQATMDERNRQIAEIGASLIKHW
Glycogen synthase kinase-3 alpha, sequence (P49840 whole entry): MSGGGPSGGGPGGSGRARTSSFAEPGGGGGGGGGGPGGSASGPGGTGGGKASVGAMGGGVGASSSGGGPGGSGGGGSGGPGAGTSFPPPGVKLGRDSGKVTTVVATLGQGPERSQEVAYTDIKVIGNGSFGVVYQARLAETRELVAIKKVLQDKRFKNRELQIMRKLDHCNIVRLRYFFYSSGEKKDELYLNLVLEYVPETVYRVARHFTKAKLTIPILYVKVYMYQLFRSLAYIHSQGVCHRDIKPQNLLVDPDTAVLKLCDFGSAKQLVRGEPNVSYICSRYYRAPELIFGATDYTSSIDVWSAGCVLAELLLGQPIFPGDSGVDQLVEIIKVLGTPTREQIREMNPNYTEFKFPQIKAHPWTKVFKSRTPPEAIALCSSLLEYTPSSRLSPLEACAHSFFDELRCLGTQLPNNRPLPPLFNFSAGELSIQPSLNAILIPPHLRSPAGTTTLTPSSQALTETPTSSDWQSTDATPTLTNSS

Broadly, the AC50 is the midpoint of the concentration-response curve, whichever way the signal moves. Usually IC50 stands for the concentration needed to halve the response being measured. `O=C(c1ccccc1)c1cc(Cl)ccc1N1C(=O)C=CC1=O`: the results for the AC50 in assay [1] and in assay [2] were 11.9 µM (active) and 0.552 µM (active), respectively. The IC50 is 14.7 µM (inactive) at Beta Lactamase and 2.26 µM (active) in the assay on CHO.

Regarding `Nc1nonc1-n1nnc(C(=O)N/N=C/c2ccccc2Cl)c1CN1CCOCC1`, the half-maximal activity concentration (AC50) is 5.64 µM (active) in [3] and 2 µM (active) in assay [4].

Consider `Cc1ccc(-n2nc3ccc(N)cc3n2)cc1Cl`, for which the IC50 in assay [5] was > 100 µM (inactive).

In general, EC50 refers to the concentration at which the effect is half-maximal. The CC50 is the concentration that lowers cell viability or growth by half. For the molecule `Cc1ccc(S(=O)(=O)Nc2cccc3cccnc23)cc1`, the 50% inhibitory concentration (IC50) in [6] was 0.63 µM (active); in assay [8] it was 3.67 µM (active); in the assay with HEK293 [9] it was 56.8 µM (inactive); in the assay with HEK293 [16] it was 18.1 µM (active); in assay [17], 0.55 µM (active); in assay [18], 1.84 µM (active). Besides, the IC50 in [19] is > 32 µM (inactive); in assay [20], 2.57 µM (active); in assay [22], 1.42 µM (active); with Jurkat, 1.06 µM (active). The EC50 in [7] is > 32 µM (inactive); at Beta-galactosidase [10], > 40 µM (inactive); in assay [11] it was 2.84 µM (active); in [12], 15.2 µM (active); in assay [15], 11.5 µM (active); at Beta-galactosidase [21] it was > 31.5 µM (inactive). For the same molecule, the figures for the EC50 (in assay [23]; in assay [24]; at Mu-type opioid receptor) were 13.7 µM (active), 2.5 µM (active) and > 32 µM (inactive), respectively. Also, the results for the concentration at half-maximal activity (AC50) (in [1]; in the assay with A-375 [13]; with A-375 [14]) were 5.55 µM (active), > 35 µM (active) and > 35 µM (active), respectively. Besides, the cytotoxic concentration (CC50) with Vero is 6.89 µM (active).

In the case of `OCCN(CCO)CC(O)COCCC12CC3CC(CC(C3)C1)C2` (centres undefined), the half-maximal activity concentration (AC50) in assay [25] was 77.6 µM (active).

As for `COc1ccc(S(=O)(=O)N(C)C[C@@H]2Oc3c(NC(=O)Nc4cccc5ccccc45)cccc3C(=O)N([C@H](C)CO)C[C@H]2C)cc1`, the concentration at half-maximal activity (AC50) in the assay on INS1 [26] is 74.5 µM (active); in the assay on INS1 [27] it was 18.4 µM (active); with INS1 [28] it was > 235 µM (inactive).
